# Laboratory results taken from patent US9260707B2, “Compounds for inhibition of MMP13-substrate interactions and methods of use thereof to treat osteoarthritis and cartilage degeneration” (ProteaPex Therapeutics, LLC, priority 2010, dated 2016).
# Peptide text beside a SMILES is read from it.
# Legend:
# [1] = test system: hypertrophic cartilage tissue extract (LTBP1-containing TGFβ large latent complex); assay: Peptide binding assay, hypertrophic cartilage tissue extract; parameters: species or system avian; conditions: 100 nM fluorescent-labeled peptide
# Excerpt: (§1) Cartilage from day 17 avian embryo sterna was extracted with 0.5% CHAPS buffer and binding assays conducted. Scr=scrambled control; +cold=unlabeled competition. *=p<0.001 compared to scrambled. ***=p<0.001 compared to MMP13-derived peptide by ANOVA with Tukey's Analysis. (A) Resting cartilage and MMP13-19 peptide. (B) Hypertrophic cartilage and MMP13-19 peptide. (C) Hypertrophic cartilage and MMP13-10 peptide D. hypertrophic cartilage and MMP13-6 peptide.
# (§2) Twenty-five micrograms of total equal protein from cartilage CHAPS extracts or five nanograms recombinant protein of the calcium-like EGF binding domain of LTBP1 (a kind gift of Sarah Dallas) or hypertrophic cartilage from day 17 avian embryo sterna and tibial growth plate cartilage from day 14 newborn rat pups were extracted with 0.5% CHAPS buffer and eluates immunoprecipitated with polyclonal antibody to LTBP1 and then samples were plated onto poly-L-lysine coated 96 well plates. After overnight drying, the protein-coated wells were incubated with 100 nM fluorescent-labeled peptide in Tris buffered saline [150 mM NaCl, 10 mM Tris, pH 8.0] and 20% horse serum for 4 hours at 16° C. After incubation, the wells are washed twice with binding buffer, the protein layer solubilized with 5N NaOH and fluorescence bound measured at 495 nm excitation and 520 nm emission on the LabSystems Fluoroskan Ascent CF plate reader. […]
# [2] = test system: resting cartilage tissue extract (LTBP1-containing TGFβ large latent complex); assay: Peptide binding assay, resting cartilage tissue extract; parameters: species or system avian; conditions: 100 nM fluorescent-labeled peptide
# Excerpt: as §1, §2
# [3] = test system: hypertrophic chondrocyte-produced extracellular matrix (LTBP1 in native conformation); assay: Peptide binding to extracellular matrix of whole cell primary chondrocyte cultures; parameters: species or system avian
# Procedure: (§3) Binding assays utilizing intact hypertrophic chondrocyte-produced extracellular matrix, LTBP1 immunoprecipitates of hypertrophic chondrocyte-produced extracellular matrix and recombinant protein of the calcium-binding, EGF-like domains of LTBP1 (30) were performed as described in Materials and Methods. *=p<0.001 compared to scrambled. ***=p<0.001 compared to MMP13-derived peptide by ANOVA with Tukey's analysis. (A) Intact hypertrophic chondrocyte-produced extracellular matrix and MMP13-19 or MMP13-10 peptide binding. (B) 25 μg eluates of hypertrophic cartilage immunoprecipitated with polyclonal antibody to LTBP1 and MMP13-19 peptide binding. (C) 15 ng of recombinant protein of the calcium-binding, EGF-like domains and MMP13-19 or MMP13-10 or MMP13-6 peptide binding.
# Sterna were removed from day 17 chick embryos using microsurgical techniques as previously described (D'Angelo et al., J. Bone Miner. Res. 12:1368-1377, 1997). […] The cell suspensions were then filtered through a […] filter, counted, seeded onto Falcon 6-well, tissue culture treated plates and covered with 2 ml of high glucose DMEM containing 10% NuSerum and 50 μg/ml of penicillin/streptomycin, 2 mM of L-glutamine (Invitrogen Life Technologies, Carlsbad, Calif., USA). […]
# [4] = test system: calcium-binding EGF-like domains of LTBP1 (CE-LTBP1); assay: Peptide binding to recombinant calcium-binding EGF-like domains of LTBP1 (CE-LTBP1)
# Procedure: as §3, with “(C) 15 ng of recombinant protein of the calcium-binding, EGF-like domains and MMP13-19 or MMP13-10 or MMP13-6 peptide binding.” left out
# as §2, with “After overnight drying, the protein-coated wells were incubated with 100 nM fluorescent-labeled peptide in Tris buffered saline [150 mM NaCl, 10 mM Tris, pH 8.0] and 20% horse serum for 4 hours at 16° C.” left out
# MMP = conditions: in vivo; cited from earlier work
# [5] = Toxicity in vivo by blood analysis; parameters: species or system rat
# Procedure: Cytotoxicity was assessed by Alomar Blue Assay (Invitrogen) on primary chondrocytes and a monocyte cell line incubated for 24 hours with PxTx001-1. Absorbance was recorded at 570 nm for every hour up to 24 hrs to monitor both proliferation and metabolic activity. (FIG. 39). Toxicity in vivo was determined by blood analysis from rats that had been injected with the peptide as described previously. Total cell count, blood components and serum proteins were measured (Table 5).
# MMP13 = MMP13 enzymatic activity in cartilage extracts with inhibitors; assay type: biochemical, avian
# Procedure: Utilizing a standard curve with MMP13 and MMP9 catalytic domains (Enzo, Inc) we quantitated the amount of MMP13 and MMP9 activity in cartilage extracts (Table 4). Cartilage isolated from day 17 avian embryos contain 0.166 units and 0.152 units MMP13 per 40 μg total tissue in early hypertrophic and late hypertrophic tissue, respectively. […] Inclusion of an inhibitor of MMP13 (Calbiochem) reduces the activity in both cartilage populations by 24% and 30% respectively.
# [6] = test system: mono-iodoacetate (MIA)-induced osteoarthritis; assay: MIA-induced osteoarthritis, cartilage mineralization (total and bone volume), d14 and d21; assay type: in vivo, rat; parameters: Total Volume / Bone Volume: unit not given here
# Procedure: Isolated joints were analyzed by Micro CT to measure cortical bone, trabecular bone and cartilage of the patella, femur and tibia, the production of chondrophytes and tissue mineralization in response to treatment. Total mineralization in the patella, femur and tibial cartilages, as well as subchondral bone, were calculated with Scanco μCT software. Micro-CT was conducted with a Scanco uCT 35 (Scanco Medical, Bassersdorf, Switzerland) system. Scans of 15 μm voxel size, 55 KVp, 0.36 degrees rotation step (180 degrees angular range) and a 600 ms exposure per view produced from joints immersed in phosphate buffered saline.
# Animals were treated with MMP13-19 peptide or BMP-7 protein once a week for two (d14) or three (d21) weeks following an injection of mono-iodoacetate (MIA), a chemical agent that induces osteoarthritis pathology measurable at four weeks post injection. The samples that received saline are the positive disease control. 250 nM of MMP13-19 peptide and 50 uM BMP-7 were injected laterally below the patellar ligament. […] But, it is also known that BMP-7 is bone-inducing.
# MIA-induced OA model = assay: Acute treatment of MIA-induced OA, week 4 micro CT; assay type: in vivo, rat
molecule,measurement,setting,value
MMP13-10 peptide: amino acids 17-26 of SEQ ID NO: 1 (LRGETMIFKD; listed as Homo sapiens),binding compared to scrambled peptide control,[1],less than two-fold
same,binding compared to scrambled peptide control,[2],less than two-fold
same,binding compared to scrambled peptide,[3],four-fold
same,binding of recombinant protein more than scrambled peptide,[4],did not bind specifically
CC1(C)SCCN(S(=O)(=O)c2ccc(Oc3ccncc3)cc2)[C@H]1C(=O)NO [prinomastat],side-effects in treatment of OA,MMP,severe side-effects known as MMP-induced musculoskeletal syndrome
MMP13-6 peptide: amino acids 37-42 of SEQ ID NO: 1 (VDAELF; listed as Homo sapiens),binding compared to scrambled peptide control,[1],did not specifically bind
same,binding compared to scrambled peptide control,[2],did not specifically bind
same,binding compared to scrambled peptide,[3],did not bind specifically
same,binding of recombinant protein more than scrambled peptide,[4],did not bind specifically
CC[C@H](C)[C@H](NC(=O)[C@H](CCCCN)NC(=O)[C@H](CCCCN)NC(=O)[C@@H](NC(=O)[C@H](CCC(=O)O)NC(=O)[C@H](CCCCN)NC(=O)[C@@H]1CCCN1C(=O)[C@H](CC(C)C)NC(=O)CNC(=O)[C@H](CC(C)C)NC(=O)[C@@H](N)CCC(=O)O)C(C)C)C(=O)N[C@@H](CO)C(=O)N[C@@H](C)C(=O)N[C@@H](C)C(=O)N[C@H](C(=O)N[C@@H](Cc1c[nH]cn1)C(=O)N[C@@H](Cc1ccccc1)C(=O)N[C@@H](CCC(=O)O)C(=O)N[C@@H](CC(=O)O)C(=O)O)C(C)C [MMP13-19 peptide] (H-ELGLPKEVKKISAAVHFED-OH),ALT,[5]; 1 injection,56 U/L
same,AST,[5]; 1 injection,99 U/L
same,Alk Phos,[5]; 1 injection,272 U/L
same,BUN,[5]; 1 injection,15 mg/dL
same,Cholesterol,[5]; 1 injection,74 mg/dL
same,Creatinine,[5]; 1 injection,0.4 mg/dL
same,RBC,[5]; 1 injection,5.59e+06 µL⁻¹
same,Total Bilirubin,[5]; 1 injection,0.3 mg/dL
same,WBC,[5]; 1 injection,3600 µL⁻¹
same,ALT,[5]; 4 injections,52 U/L
same,AST,[5]; 4 injections,95 U/L
same,Alk Phos,[5]; 4 injections,194.5 U/L
same,BUN,[5]; 4 injections,18 mg/dL
same,Cholesterol,[5]; 4 injections,67.5 mg/dL
same,Creatinine,[5]; 4 injections,0.3 mg/dL
same,RBC,[5]; 4 injections,6.9e+06 µL⁻¹
same,Total Bilirubin,[5]; 4 injections,1.1 mg/dL
same,WBC,[5]; 4 injections,4550 µL⁻¹
same,"total cell count, blood components and serum proteins (all parameters measured)",[5]; rats injected with the peptide,within normal ranges
COc1ccc(S(=O)(=O)N(Cc2cccnc2)[C@@H](C(=O)NO)C(C)C)cc1 [CGS-27023A],side-effects in treatment of OA,MMP,severe side-effects known as MMP-induced musculoskeletal syndrome
Cc1cc(CNC(=O)c2cc(C(=O)NCc3ccc(F)c(C)c3)ncn2)ccc1F [MMP13 Inhibitor],reduction of MMP13 activity,MMP13; early hypertrophic tissue,24%
same,reduction of MMP13 activity,MMP13; late hypertrophic tissue,30%
"BMP-7: BMP-7 protein, positive control, chondroprotective and bone-inducing (protein, UniProt P18075 293-431, looked up) Bone morphogenetic protein 7: STGSKQRSQNRSKTPKNQEALRMANVAENSSSDQRQACKKHELYVSFRDLGWQDWIIAPEGYAAYYCEGECAFPLNSYMNATNHAIVQTLVHFINPETVPKPCCAPTQLNAISVLYFDDSSNVILKKYRNMVVRACGCH",BV/TV,[6]; Patellar cartilage d14,0.0626
same,Bone Volume,[6]; Patellar cartilage d14,0.419
same,Total Volume,"[6]; Patellar cartilage d14, 250 nM peptide or 50 uM BMP-7 once a week",6.6967
same,BV/TV,[6]; Patellar cartilage d21,0.0192
same,Bone Volume,[6]; Patellar cartilage d21,0.2037
same,Total Volume,[6]; Patellar cartilage d21,10.7748
same,BV/TV,[6]; Total Joint Cartilage d14,0.0435
same,Bone Volume,[6]; Total Joint Cartilage d14,1.0643
same,Total Volume,[6]; Total Joint Cartilage d14,24.4891
same,BV/TV,[6]; Total Joint Cartilage d21,0.0412
same,Bone Volume,[6]; Total Joint Cartilage d21,0.9607
same,Total Volume,[6]; Total Joint Cartilage d21,23.3101
same,BV/TV (ratio of bone volume to total volume),MIA-induced OA model; Femur,0.2245 +/− 0.066
same,TbN (trabecular number),MIA-induced OA model; Femur,4.200 +/− 0.830
same,TbN (trabecular number),MIA-induced OA model; Patella,6.2122 +/− 0.169
same,BV/TV (ratio of bone volume to total volume),"MIA-induced OA model; Patella, 250 nM peptide or 500 ng BMP7 weekly infrapatellar",0.6846 +/− 0.084
same,BV/TV (ratio of bone volume to total volume),MIA-induced OA model; Tibia,0.1757 +/− 0.087
same,TbN (trabecular number),MIA-induced OA model; Tibia,4.9095 +/− 0.719
